Test results: PMC5077133, “Towards Development of Small Molecule Lipid II Inhibitors as Novel Antibiotics” (PLoS ONE, 2016)

What was measured:
[1] = Lipid II binding by Surface Plasmon Resonance; conditions: SPR, immobilized 3-Lipid II, 25°C
Procedure: Short-chain water-soluble Lipid II containing a lipid tail of three isoprene units was generated and purified essentially as described. Typically, M. flavus vesicles (120 μmol lipid-Pi) were incubated together with 500 μmol UDP-GlcNAc, 500 μmol UDP-MurNAC-pentapeptide and 400 μmol farnesyl phosphate in 100 mM Tris-HCl pH 8.0, 5 mM MgCl2. The incubation lasted two hours at room temperature for 3-P. The synthesis of 3-Lipid II was followed using RP-8 reversed phase TLC (Merck) developed in 75% methanol. For purification, the membranes were removed by centrifugation at 40,000 x g and the supernatant was collected and loaded on a C18 HPLC column and eluted with a linear gradient from 50 mM ammonium bicarbonate to 100% methanol in 30 minutes. Farnesyl-Lipid II (3-Lipid II) eluted at approximately 60% methanol. Its identity was confirmed by mass spectroscopy. Surface Plasmon Resonance binding experiments were carried out on a BIAcore T100 system (BIAcore Inc., Piscataway, NY) at 25°C. The assay buffer was 10 mM HEPES, 150 mM NaCl, 0.05% surfactant P20, pH 7.4 (± 3 mM EDTA) supplemented with 10% DMSO. 3-Lipid II (50 RUs) was immobilized on CM5 sensor chips using the amine-coupling chemistry recommended by the manufacturer. For initial determination of binding, compounds were introduced into the flow-cells (30 μl/min) in the running buffer at 10 μM. Resonance signals were corrected for nonspecific binding by subtracting the background of the control flow-cell. After each analysis, the sensor chip surfaces were regenerated with 50 mM NaOH for 30 s at a flow rate 100 μl/min, and equilibrated with the buffer prior to next injection. For binding kinetics studies, binding isotherms were analyzed with manufacturer-supplied software for BIAcore T100.

HeLa cells = experiment: Cytotoxicity against mammalian cells (MTS assay); format: cell-based
Procedure: The cytotoxicity concentration of antibacterial compounds that produces half maximal decrease in viability (CC50) against mammalian cells (HeLa, ATCC CCL-2.2) was determined as described. The effect of compounds on HeLa cell viability was assessed in triplicate by measuring the mitochondrial activity using MTS assays according to the manufacturer’s instructions (Cell Titer 96 proliferation assay, Promega). The cells were incubated for 72 hours in RPMI1640 medium containing the compounds at final concentrations ranging from 64 to 0.125 μg/ml. CC50 was determined using a standard curve of serially diluted untreated cells in each experiment.

P. aeruginosa ATCC 27853 = experiment: Antibacterial activity (MIC, broth dilution); format: cell-based; conditions: CLSI
Procedure: (§1) Determination of the Minimal Inhibitory Concentrations (MIC) by dilution was carried out by broth dilution according to CLSI standards.

E. aerogenes ATCC 13048 = experiment: Antibacterial activity (MIC, broth dilution); format: cell-based; conditions: CLSI
Procedure: as §1

E. cloacae ATCC 13047 = experiment: Antibacterial activity (MIC, broth dilution); format: cell-based; conditions: CLSI
Procedure: as §1

[2] = system: K. pneumoniae NR-15411 (KPC); experiment: Antibacterial activity (MIC, broth dilution); format: cell-based; conditions: CLSI
Procedure: as §1

E. faecium EF1509 (VRE) = experiment: Antibacterial activity (MIC, broth dilution); format: cell-based; conditions: CLSI, in µg/mL
Procedure: as §1

S. aureus MRSA 1094 = experiment: Antibacterial activity (MIC, broth dilution); format: cell-based; conditions: CLSI
Procedure: as §1

P. aeruginosa PA01 = experiment: Antibacterial activity (MIC, broth dilution); format: cell-based; conditions: CLSI
Procedure: as §1

[3] = system: S. aureus HFH-30123 (MRSA); experiment: Antibacterial activity (MIC, broth dilution); format: cell-based; conditions: CLSI
Procedure: as §1

E. faecium F118 (VRE) = experiment: Antibacterial activity (MIC, broth dilution); format: cell-based; conditions: CLSI, in µg/mL
Procedure: as §1

P. aeruginosa X13273 = experiment: Antibacterial activity (MIC, broth dilution); format: cell-based; conditions: CLSI, in µg/mL
Procedure: as §1

[4] = system: K. pneumoniae NR-15410 (KPC); experiment: Antibacterial activity (MIC, broth dilution); format: cell-based; conditions: CLSI
Procedure: as §1

A. baumanii ATCC 19606 = experiment: Antibacterial activity (MIC, broth dilution); format: cell-based, Acinetobacter baumanii; conditions: CLSI, in µg/mL
Text: Staphylococcus aureus ATCC 29213, Escherichia coli ATCC 25922, Enterococcus faecalis ATCC 29212, Streptococcus pneumonia ATCC 49619 and Acinetobacter baumanii ATCC 19606 were obtained from Microbiologics (St. Cloud, MN). E. faecalis ATCC 51575, ATCC 51299 and REMEL C99707 and E. faecium ATCC 51559 (MDR), REMEL IH79985 and REMEL C110914 were generously provided by the Laboratory of Pathology, University of Maryland Baltimore School of Medicine. Unless stated otherwise, chemicals and reagents were purchased from Sigma.
as §1

Row | Compound | Lipid II binding Kd [1] | Antibacterial activity (MIC) P. aeruginosa ATCC 27853 (P. aeruginosa ATCC 27853) [µg/mL] | Antibacterial activity (MIC) E. aerogenes ATCC 13048 (E. aerogenes ATCC 13048) [µg/mL] | Antibacterial activity (MIC) E. cloacae ATCC 13047 (E. cloacae ATCC 13047) [µg/mL] | Antibacterial activity (MIC) K. pneumoniae NR-15411 (KPC) [2] [µg/mL] | Antibacterial activity (MIC) E. faecium EF1509 (VRE) (E. faecium EF1509 (VRE)) | Antibacterial activity (MIC) S. aureus MRSA 1094 (S. aureus MRSA 1094) [µg/mL] | Antibacterial activity (MIC) P. aeruginosa PA01 (P. aeruginosa PA01) [µg/mL] | Antibacterial activity (MIC) S. aureus HFH-30123 (MRSA) [3] [µg/mL] | Antibacterial activity (MIC) E. faecium F118 (VRE) (E. faecium F118 (VRE)) | Antibacterial activity (MIC) P. aeruginosa X13273 (P. aeruginosa X13273) | Antibacterial activity (MIC) K. pneumoniae NR-15410 (KPC) [4] [µg/mL] | Antibacterial activity (MIC) A. baumanii ATCC 19606 (A. baumanii ATCC 19606) | Kd [1] [µM] | CC50% (72 h HeLa cells) (HeLa cells)
1 | Cc1cc(/C=C/c2ccc(N(C)C)cc2)cc(C)[o+]1.F[B-](F)(F)F [6jc37] | No | ≥ 64 | ≥ 64 | ≥ 64 | ≥ 64 | 64 | 16 | ≥ 64 | 16 | 64 | >=64 | ≥ 64 | >=64 | – | 18.96
2 | Clc1ccc(-c2cc(/C=C/c3cc4c5c(c3)CCCN5CCC4)[o+]c(-c3ccc(Cl)cc3)c2)cc1.F[B-](F)(F)F [6jc-69-4] | – | ≥ 64 | ≥ 64 | ≥ 64 | ≥ 64 | 4 | 8 | ≥ 64 | 8 | 5.66 | >=64 | ≥ 64 | >=64 | 30.3 ± 0.5 | 3.09
3 | C(=C\c1cc(-c2ccccc2)cc(-c2ccccc2)[o+]1)/c1cc2c3c(c1)CCCN3CCC2.F[B-](F)(F)F [6jc-58] | – | 64 | 32 | 64 | 64 | 4 | 1.41 | 64 | 2 | 4 | 32 | 45.3 | 8 | 17 ± 4 | <.78125
4 | Cn1cc(/C=C/c2cc(-c3ccccc3)cc(-c3ccccc3)[o+]2)c2ccccc21.F[B-](F)(F)F [6jc66-1] | – | ≥ 64 | ≥ 64 | ≥ 64 | ≥ 64 | 4 | 2.83 | ≥ 64 | 4 | 8 | >=64 | ≥ 64 | 45.25 | 2.9 ± 0.3 | 1.36
5 | Cc1ccc(-c2cc(/C=C/c3c[nH]c4ccccc34)[o+]c(-c3ccc(C)cc3)c2)cc1.F[B-](F)(F)F [6jc-53-2] | – | ≥ 64 | ≥ 64 | ≥ 64 | ≥ 64 | 8 | 2 | ≥ 64 | 4 | 5.657 | >=64 | ≥ 64 | >=64 | 10 ± 3 | 1.12
6 | Cc1ccc(-c2cc(/C=C/c3cn(C)c4ccccc34)[o+]c(-c3ccc(C)c(C)c3)c2)cc1C.F[B-](F)(F)F [6jc66-4] | – | ≥ 64 | ≥ 64 | ≥ 64 | ≥ 64 | 2 | 2 | ≥ 64 | 2 | 4 | >=64 | 64 | 64 | 27.9 ± 2 | 0.92

Continued, in another order:

Row | Lipid II binding Kd [1] | Antibacterial activity (MIC) P. aeruginosa ATCC 27853 (P. aeruginosa ATCC 27853) [µg/mL] | Antibacterial activity (MIC) E. aerogenes ATCC 13048 (E. aerogenes ATCC 13048) [µg/mL] | Antibacterial activity (MIC) E. cloacae ATCC 13047 (E. cloacae ATCC 13047) [µg/mL] | Antibacterial activity (MIC) K. pneumoniae NR-15411 (KPC) [2] [µg/mL] | Antibacterial activity (MIC) E. faecium EF1509 (VRE) (E. faecium EF1509 (VRE)) | Antibacterial activity (MIC) S. aureus MRSA 1094 (S. aureus MRSA 1094) [µg/mL] | Antibacterial activity (MIC) P. aeruginosa PA01 (P. aeruginosa PA01) [µg/mL] | Antibacterial activity (MIC) S. aureus HFH-30123 (MRSA) [3] [µg/mL] | Antibacterial activity (MIC) E. faecium F118 (VRE) (E. faecium F118 (VRE)) | Antibacterial activity (MIC) P. aeruginosa X13273 (P. aeruginosa X13273) | Antibacterial activity (MIC) K. pneumoniae NR-15410 (KPC) [4] [µg/mL] | Antibacterial activity (MIC) A. baumanii ATCC 19606 (A. baumanii ATCC 19606) | Kd [1] [µM] | Compound | CC50% (72 h HeLa cells) (HeLa cells)
7 | – | ≥ 64 | ≥ 64 | ≥ 64 | ≥ 64 | 22.63 | 16 | ≥ 64 | 32 | 8 | >=64 | ≥ 64 | >=64 | 34 ± 4 | CN(C)c1ccc(/C=C/c2cc(-c3ccc(Cl)cc3)cc(-c3ccc(Cl)cc3)[o+]2)cc1.F[B-](F)(F)F [6jc41-1] | >32
8 | – | ≥ 64 | ≥ 64 | ≥ 64 | ≥ 64 | 4 | 4 | ≥ 64 | 4 | 5.66 | >=64 | ≥ 64 | 16 | – | CCc1ccc(-c2cc(/C=C/c3ccc(N(C)C)cc3)[o+]c(-c3ccc(CC)cc3)c2)cc1.F[B-](F)(F)F [6jc64-1] | <.78125
9 | – | – | 64 | 64 | 64 | 0.5 | 1 | 64 | 2 | 2 | 45.25 | 16 | 8 | 9.2 ± 2 | Cc1ccc(-c2cc(/C=C/c3ccc(N(C)C)cc3)[o+]c(-c3ccc(C)cc3)c2)cc1.F[B-](F)(F)F [6jc51-1] | <.78125
10 | – | ≥ 64 | ≥ 64 | ≥ 64 | ≥ 64 | 64 | ≥ 64 | ≥ 64 | ≥ 64 | >=64 | >=64 | ≥ 64 | >=64 | – | CN(C)c1ccc(/C=C/C=C/c2cc(-c3ccc(Cl)cc3)cc(-c3ccc(Cl)cc3)[o+]2)cc1.F[B-](F)(F)F [6jc43-2] | >32
